# How the values were obtained:
# [1] = Induction of activation of human CD56+ CD3- NK cells co-cultured with human K562 cells in 1:1 ratio and assessed as increase in TNF-alpha secretion at 0.625 uM measured by ELISA assay; format: functional, Natural killer cell
# [2] = Induction of anti-CD3/CD28 antibodies-stimulated human anergic T cell activation at 10 uM assessed fold increase in IFN-gamma secretion measured by ELISA assay; format: functional, T cell line
# [3] = Induction of activation of human CD56+ CD3- NK cells co-cultured with human K562 cells in 1:1 ratio and assessed as increase in IFN-gamma secretion at 10 uM measured by ELISA assay; format: functional, Natural killer cell
# [4] = Induction of anti-CD3 antibodies-stimulated human T cell activation at 1 uM assessed fold increase in IL-2 secretion measured by ELISA assay; format: functional, T cell line; also: reference of the scale not given here
# [5] = Induction of anti-CD3 antibodies-stimulated human CD8+ T cell activation at 1.11 uM assessed fold increase in cell proliferation measured by flow cytometry analysis; format: functional, T cell line; also: reference of the scale not given here
# [6] = Induction of anti-CD3/CD28 antibodies-stimulated human T cell activation at 1.11 uM assessed fold increase in GM-CSF secretion measured by ELISA assay; format: functional, T cell line
# [7] = Induction of anti-CD3/CD28 antibodies-stimulated human CD8+ T cell activation at 1.11 uM assessed fold increase in cell proliferation measured by flow cytometry analysis; format: functional, T cell line
# [8] = Induction of anti-CD3 antibodies-stimulated human T cell activation at 1.11 uM assessed fold increase in GM-CSF secretion measured by ELISA assay; format: functional, T cell line; also: reference of the scale not given here
# [9] = Induction of anti-CD3/CD28 antibodies-stimulated human anergic T cell activation at 0.37 uM assessed fold increase in IFN-gamma secretion measured by ELISA assay; format: functional, T cell line
# [10] = Induction of activation of human CD56+ CD3- NK cells co-cultured with human K562 cells in 1:1 ratio and assessed as increase in IFN-gamma secretion at 0.625 uM measured by ELISA assay; format: functional, Natural killer cell
# [11] = Induction of anti-CD3 antibodies-stimulated human CD8+ T cell activation at 10 uM assessed fold increase in CD69 expression measured by flow cytometry analysis; format: functional, T cell line; also: reference of the scale not given here
# [12] = Induction of anti-CD3 antibodies-stimulated human T cell activation at 1.11 uM assessed fold increase in TNF-alpha secretion measured by ELISA assay; format: functional, T cell line; also: reference of the scale not given here
# [13] = Induction of activation of human CD56+ CD3- NK cells co-cultured with human K562 cells in 1:1 ratio and assessed as increase in TNF-alpha secretion at 10 uM measured by ELISA assay; format: functional, Natural killer cell
# [14] = Induction of activation of human CD56+ CD3- NK cells co-cultured with human K562 cells in 1:1 ratio and assessed as increase in TNF-alpha secretion at 2.5 uM measured by ELISA assay; format: functional, Natural killer cell
# [15] = Induction of anti-CD3/CD28 antibodies-stimulated human CD4+ T cell activation at 10 uM assessed fold increase in CD69 expression measured by flow cytometry analysis; format: functional, T cell line
# [16] = Induction of anti-CD3/CD28 antibodies-stimulated human T cell activation at 4 uM assessed fold increase in IL-2 secretion measured by ELISA assay; format: functional, T cell line
# [17] = Induction of anti-CD3/CD28 antibodies-stimulated human T cell activation at 4 uM assessed fold increase in CD25 expression measured by ELISA assay; format: functional, T cell line
# [18] = Induction of anti-CD3/CD28 antibodies-stimulated human T cell activation at 10 uM assessed fold increase in GM-CSF secretion measured by ELISA assay; format: functional, T cell line
# [19] = Induction of anti-CD3 antibodies-stimulated human exhausted T cell activation assessed fold increase in IL-2 secretion measured by ELISA assay; format: functional, T cell line; also: reference of the scale not given here
# B cell = experiment: Induction of anti-IgM-stimulated human CD20+ B cell activation at 10 to 1000 uM assessed as increase in CD69 expression measured as mean fluorescence intensity AUC by flow cytometry analysis; format: functional, cell-based; conditions: dose 10-1000 µM
# [20] = Induction of anti-CD3/CD28 antibodies-stimulated human CD4+ T cell activation at 10 uM assessed fold increase in cell proliferation measured by flow cytometry analysis; format: functional, T cell line
# [21] = Induction of anti-CD3/CD28 antibodies-stimulated human CD8+ T cell activation at 10 uM assessed fold increase in CD69 expression measured by flow cytometry analysis; format: functional, T cell line
# [22] = Induction of anti-CD3/CD28 antibodies-stimulated human T cell activation at 1.11 uM assessed fold increase in TNF-alpha secretion measured by ELISA assay; format: functional, T cell line
# [23] = Induction of activation of human CD56+ CD3- NK cells co-cultured with human K562 cells in 1:1 ratio and assessed as increase in IFN-gamma secretion at 2.5 uM measured by ELISA assay; format: functional, Natural killer cell
# [24] = Induction of anti-CD3/CD28 antibodies-stimulated human T cell activation at 1.11 uM assessed fold increase in IFN-gamma secretion measured by ELISA assay; format: functional, T cell line
# [25] = Induction of anti-CD3 antibodies-stimulated human CD8+ T cell activation at 1.11 uM assessed fold increase in CD69 expression measured by flow cytometry analysis; format: functional, T cell line; also: reference of the scale not given here
# [26] = Induction of anti-CD3 antibodies-stimulated human exhausted T cell activation assessed fold increase in IFN-gamma secretion measured by ELISA assay; format: functional, T cell line; also: reference of the scale not given here
# [27] = Induction of anti-CD3/CD28 antibodies-stimulated human T cell activation at 1 uM assessed fold increase in IL-2 secretion measured by ELISA assay; format: functional, T cell line
# [28] = Induction of anti-CD3 antibodies-stimulated human CD8+ T cell activation at 10 uM assessed fold increase in cell proliferation measured by flow cytometry analysis; format: functional, T cell line; also: reference of the scale not given here
# [29] = Induction of anti-CD3/CD28 antibodies-stimulated human CD8+ T cell activation at 1.11 uM assessed fold increase in CD69 expression measured by flow cytometry analysis; format: functional, T cell line
# [30] = Induction of allogenic human T cell activation at 3 uM assessed fold increase in cell proliferation; format: functional, T cell line
# [31] = Induction of anti-CD3 antibodies-stimulated human exhausted T cell activation assessed fold increase in GM-CSF secretion measured by ELISA assay; format: functional, T cell line; also: reference of the scale not given here
# [32] = Induction of anti-CD3 antibodies-stimulated human CD4+ T cell activation at 10 uM assessed fold increase in CD69 expression measured by flow cytometry analysis; format: functional, T cell line; also: reference of the scale not given here
# [33] = Induction of anti-CD3 antibodies-stimulated human T cell activation at 1.11 uM assessed fold increase in IFN-gamma secretion measured by ELISA assay; format: functional, T cell line; also: reference of the scale not given here
# [34] = Induction of anti-CD3/CD28 antibodies-stimulated human CD4+ T cell activation at 1.11 uM assessed fold increase in CD69 expression measured by flow cytometry analysis; format: functional, T cell line
# [35] = Induction of anti-CD3 antibodies-stimulated human T cell activation at 10 uM assessed fold increase in GM-CSF secretion measured by ELISA assay; format: functional, T cell line; also: reference of the scale not given here
# [36] = Induction of anti-CD3 antibodies-stimulated human T cell activation at 10 uM assessed fold increase in TNF-alpha secretion measured by ELISA assay; format: functional, T cell line; also: reference of the scale not given here
# [37] = Induction of anti-CD3 antibodies-stimulated human exhausted CD4+ T cell activation assessed fold increase in CTLA4 expression measured by flow cytometry analysis; format: functional, T cell line; also: reference of the scale not given here
Structure (SMILES),fold change (FC) [1],fold change (FC) [2],fold change (FC) [3],fold change (FC) [4],fold change (FC) [5],fold change (FC) [6],fold change (FC) [7],fold change (FC) [8],fold change (FC) [9],fold change (FC) [10],fold change (FC) [11],fold change (FC) [12],fold change (FC) [13],fold change (FC) [14],fold change (FC) [15],fold change (FC) [16],fold change (FC) [17],fold change (FC) [18],fold change (FC) [19],AUC (B cell),further results
C[C@H](Cc1nncn1C)c1cccc(NC(=O)c2cc3cc(N4CCNCC4)ccc3cn2)c1.Cl,<=1,2.51,2.01,0.101,2.01,1.51,2.01,1.51,<=2.5,1.01,1.201,<=1.5,1.01,<=1,1.401,2.51,1.01,2.01,<=2.5,1.01,fold change (FC) [20]: >4; fold change (FC) [21]: 1.201; fold change (FC) [22]: 1.51; fold change (FC) [23]: <=1; fold change (FC) [24]: <=2; fold change (FC) [25]: <=1.2; fold change (FC) [26]: >1.61; fold change (FC) [27]: 1.01; fold change (FC) [28]: <=2; fold change (FC) [29]: <=1.2; fold change (FC) [30]: <=2; fold change (FC) [31]: <=1.4; fold change (FC) [32]: 1.401; fold change (FC) [33]: <=2; fold change (FC) [34]: 1.201; fold change (FC) [35]: 1.51; fold change (FC) [36]: <=1.5; fold change (FC) [37]: 1.41
C[C@H](Cc1nncn1C)c1cccc(NC(=O)c2nc(C(F)(F)F)c[nH]2)c1,1.01,2.51,2.01,0.051,2.01,1.51,2.01,1.51,<=2.5,2.01,1.201,<=1.5,2.01,2.01,1.401,2.51,1.01,2.01,>3.01,< 0.5,fold change (FC) [20]: >4; fold change (FC) [21]: 1.201; fold change (FC) [22]: <=1.5; fold change (FC) [23]: 1.01; fold change (FC) [24]: <=2; fold change (FC) [25]: <=1.2; fold change (FC) [26]: >1.61; fold change (FC) [27]: 2.51; fold change (FC) [28]: >4; fold change (FC) [29]: <=1.2; fold change (FC) [30]: <=2; fold change (FC) [31]: <=1.4; fold change (FC) [32]: 1.401; fold change (FC) [33]: <=2; fold change (FC) [34]: 1.201; fold change (FC) [35]: 2.01; fold change (FC) [36]: 1.51; fold change (FC) [37]: <=1.4
Cc1cc(C(=O)Nc2cccc(C3(Cc4nncn4C)COC3)c2)nc(C2CC2)n1,1.01,>4.01,>=5,>=0.201,>4,2.01,3.01,2.01,2.51,2.01,1.401,1.51,>=5,2.01,1.401,>=7.5,1.51,>4,>3.01,> 1.51,fold change (FC) [20]: >4; fold change (FC) [21]: 1.201; fold change (FC) [22]: 2.01; fold change (FC) [23]: 2.01; fold change (FC) [24]: 2.01; fold change (FC) [25]: 1.201; fold change (FC) [26]: 1.41; fold change (FC) [27]: >=7.5; fold change (FC) [28]: >4; fold change (FC) [29]: 1.201; fold change (FC) [30]: <=2; fold change (FC) [31]: >1.61; fold change (FC) [32]: >1.601; fold change (FC) [33]: 2.01; fold change (FC) [34]: 1.401; fold change (FC) [35]: 2.01; fold change (FC) [36]: 1.51; fold change (FC) [37]: <=1.4
C[C@H](Cc1nncn1C)c1cccc(N2Cc3c(cc(CN4CC(C)(O)C4)cc3C(F)(F)F)C2=O)c1,1.01,>4.01,>=5,0.151,>4,2.01,3.01,2.01,<=2.5,2.01,1.401,1.51,2.01,2.01,1.401,>=7.5,1.31,>4,2.51,0.5,fold change (FC) [20]: >4; fold change (FC) [21]: 1.201; fold change (FC) [22]: 2.01; fold change (FC) [23]: 2.01; fold change (FC) [24]: 2.01; fold change (FC) [25]: 1.201; fold change (FC) [26]: >1.61; fold change (FC) [27]: >=7.5; fold change (FC) [28]: >4; fold change (FC) [29]: 1.201; fold change (FC) [30]: <=2; fold change (FC) [31]: 1.41; fold change (FC) [32]: >1.601; fold change (FC) [33]: <=2; fold change (FC) [34]: 1.401; fold change (FC) [35]: 2.01; fold change (FC) [36]: 1.51; fold change (FC) [37]: >1.61

# From ChEMBL document CHEMBL5050844 (2019)
